Test results reported in patent US12208088B2 (Genentech, Inc., priority 2018, dated 2025).

Biological target: HPK1 (Homo sapiens (Human), UniProt Q92918)
Test: HPK1 Lantha binding assay ("Lanth")
Settings: binding assays; Morrison Ki fit
Summary of the method: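 Ki values are from Morrison-equation fitting of 665/615 nm TR-FRET signals, taking enzyme level, tracer level and tracer Kd into account. The assay mix held HPK1 (2 nM), Eu-anti-GST antibody (2 nM) and Tracer222 (15 nM). Incubations were two 1 h steps at 23 °C, on 5-fold serial compound dilutions.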

HPK1, sequence (Q92918 1-346 limits assumed): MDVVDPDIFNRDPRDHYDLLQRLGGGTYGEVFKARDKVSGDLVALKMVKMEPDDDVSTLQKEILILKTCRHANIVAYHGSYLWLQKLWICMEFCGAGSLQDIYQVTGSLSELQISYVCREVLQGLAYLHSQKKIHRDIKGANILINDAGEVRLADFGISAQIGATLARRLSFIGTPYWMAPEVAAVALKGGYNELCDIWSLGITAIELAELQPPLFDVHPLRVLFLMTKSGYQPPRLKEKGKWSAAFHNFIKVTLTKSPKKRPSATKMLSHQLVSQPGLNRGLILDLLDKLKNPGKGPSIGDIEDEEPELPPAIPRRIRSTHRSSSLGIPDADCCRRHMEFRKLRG

Structure (SMILES)	Ki
Nc1ccc(-c2cnc3c(c2Cl)C2(CC=CC2)CN3)c(F)c1 [Compound 225, 4-(4′-Chloro-1′,2′-dihydrospiro[cyclopentane-1,3′-pyrrolo[2,3-b]pyridin]-3-en-5′-yl)-3-fluoroaniline]	363 nM
CN(C)C(=O)c1cccc(-c2cnc3c(c2Cl)C2(CC=CC2)CN3)c1 [Compound 226, 3-(4′-Chloro-1′,2′-dihydrospiro[cyclopentane-1,3′-pyrrolo[2,3-b]pyridin]-3-en-5′-yl)-N,N-dimethylbenzamide]	14 nM
CN(C)C(=O)c1cccc(-c2cnc3c(c2Cl)C2(CC=CC2)CN3)c1F [Compound 227, 3-(4′-Chloro-1′,2′-dihydrospiro[cyclopentane-1,3′-pyrrolo[2,3-b]pyridin]-3-en-5′-yl)-2-fluoro-N,N-dimethylbenzamide]	11.2 nM
O=C(c1ccc(-c2cnc3c(c2Cl)C2(CC=CC2)CN3)cc1Cl)N1CCC(O)CC1 [Compound 230, (2-Chloro-4-(4′-chloro-1′,2′-dihydrospiro[cyclopentane-1,3′-pyrrolo[2,3-b]pyridin]-3-en-5′-yl)phenyl)(4-hydroxypiperidin-1-yl)methanone]	173 nM
O=C(c1ccc(-c2cnc3c(c2Cl)C2(CC=CC2)CN3)cc1)N1CCOCC1 [Compound 231, (4-(4′-Chloro-1′,2′-dihydrospiro[cyclopentane-1,3′-pyrrolo[2,3-b]pyridin]-3-en-5′-yl)phenyl)(morpholino)methanone]	447 nM
O=C(c1cccc(-c2cnc3c(c2)C2(CC2)CN3)c1F)N1CCCCC1 [Compound 232, (3-(1′,2′-dihydrospiro[cyclopropane-1,3′-pyrrolo[2,3-b]pyridin]-5′-y1)-2-fluorophenyl)(piperidin-1-yl)methanone]	33.7 nM
Cc1c(-c2ccc(N)c(C(=O)N(C)C)c2F)cnc2c1C1(CCCCC1)CN2 [Compound 233, 6-Amino-2-fluoro-N,N-dimethyl-3-(4′-methyl-1′,2′-dihydrospiro[cyclohexane-1,3′-pyrrolo[2,3-b]pyridin]-5′-yl)benzamide]	26.1 nM
CC(C)[C@@H]1C[C@]12CNc1ncc(-c3ccc(N)c(C(=O)N(C)C)c3F)cc12 [Compound 234b, 6-Amino-2-fluoro-3-((1S,2S)-2-isopropyl-1′,2′-dihydrospiro[cyclopropane-1,3′-pyrrolo[2,3-b]pyridin]-5′-yl)-N,N-dimethylbenzamide]	38 nM
CN(C)C(=O)c1c(N)ccc(-c2cnc3c(c2Cl)[C@]2(CC[C@@H](C(N)=O)CC2)CN3)c1F [Compound 235a, (1r,4r)-5′-(4-Amino-3-(dimethylcarbamoyl)-2-fluorophenyl)-4′-chloro-1′,2′-dihydrospiro[cyclohexane-1,3′-pyrrolo[2,3-b]pyridine]-4-carboxamide]	46.7 nM
CN(C)C(=O)c1c(N)ccc(-c2cnc3c(c2Cl)[C@]2(CC[C@H](C(N)=O)CC2)CN3)c1F [Compound 235b, (1s,4s)-5′-(4-Amino-3-(dimethylcarbamoyl)-2-fluorophenyl)-4′-chloro-1′,2′-dihydrospiro[cyclohexane-1,3′-pyrrolo[2,3-b]pyridine]-4-carboxamide]	11.9 nM
NC(=O)C1(c2cccc(-c3cnc4c(c3Cl)C3(CC=CC3)CN4)c2)CC1 [Compound 236, 1-(3-(4′-Chloro-1′,2′-dihydrospiro[cyclopentane-1,3′-pyrrolo[2,3-b]pyridin]-3-en-5′-yl)phenyl)cyclopropane-1-carboxamide]	33.2 nM
Clc1c(-c2ccc(Oc3ncccn3)cc2)cnc2c1C1(CC=CC1)CN2 [Compound 237, 4′-Chloro-5′-(4-(pyrimidin-2-yloxy)phenyl)-1′,2′-dihydrospiro[cyclopentane-1,3′-pyrrolo[2,3-b]pyridin]-3-ene]	283 nM
Cc1cc(C)n(-c2cccc(-c3cnc4c(c3Cl)C3(CC=CC3)CN4)c2)n1 [Compound 238, 4′-Chloro-5′-(3-(3,5-dimethyl-1H-pyrazol-1-yl)phenyl)-1′,2′-dihydrospiro[cyclopentane-1,3′-pyrrolo[2,3-b]pyridin]-3-ene]	22.9 nM
Cc1c(CC#N)ccnc1-c1cccc(-c2cnc3c(c2)C2(CC2)CN3)c1 [Compound 242, 2-(2-(3-(1′,2′-Dihydrospiro[cyclopropane-1,3′-pyrrolo[2,3-b]pyridin]-5′-yl)phenyl)-3-methylpyridin-4-yl)acetonitrile]	11.7 nM
N#CC1CCCCN1C(=O)c1cccc(-c2cnc3c(c2)C2(CC2)CN3)c1F (stereo not drawn) [Compound 244, 1-(3-(1′,2′-Dihydrospiro[cyclopropane-1,3′-pyrrolo[2,3-b]pyridin]-5′-yl)-2-fluorobenzoyl)piperidine-2-carbonitrile]	8.25 nM
CC(C)(C)c1nnc(-c2cccc(-c3cnc4c(c3Cl)C3(CC=CC3)CN4)c2)o1 [Compound 247, 2-(tert-Butyl)-5-(3-(4′-chloro-1′,2′-dihydrospiro[cyclopentane-1,3′-pyrrolo[2,3-b]pyridin]-3-en-5′-yl)phenyl)-1,3,4-oxadiazole]	253 nM
Cc1c(CC#N)ccnc1-c1cccc(-c2cnc3c(c2Cl)C2(CC=CC2)CN3)c1 [Compound 249, 2-(2-(3-(4′-Chloro-1′,2′-dihydrospiro[cyclopentane-1,3′-pyrrolo[2,3-b]pyridin]-3-en-5′-yl)phenyl)-3-methylpyridin-4-yl)acetonitrile]	4.3 nM
Cc1c(CC#N)ccnc1-c1cccc(-c2cnc3c(c2)C2(CC2)CN3)c1F [Compound 251, 2-(2-(3-(1′,2′-Dihydrospiro[cyclopropane-1,3′-pyrrolo[2,3-b]pyridin]-5′-yl)-2-fluorophenyl)-3-methylpyridin-4-yl)acetonitrile]	3.15 nM
Cc1c(CC#N)ccnc1-c1cccc(-c2cnc3c(c2Cl)C2(CC=CC2)CN3)c1F [Compound 252, 2-(2-(3-(4′-Chloro-1′,2′-dihydrospiro[cyclopentane-1,3′-pyrrolo[2,3-b]pyridin]-3-en-5′-yl)-2-fluorophenyl)-3-methylpyridin-4-yl)acetonitrile]	5.94 nM
Cc1cc(CC#N)nn1-c1cccc(-c2cnc3c(c2Cl)C2(CC=CC2)CN3)c1 [Compound 257, 2-(1-(3-(4′-Chloro-1′,2′-dihydrospiro[cyclopentane-1,3′-pyrrolo[2,3-b]pyridin]-3-en-5′-yl)phenyl)-5-methyl-1H-pyrazol-3-yl)acetonitrile]	53.2 nM

The next lines start with the values.

Ki	Structure (SMILES)
44.8 nM	CN(C)C(=O)c1c(N)ccc(-c2cnc3c(c2Cl)[C@]2(CC[C@@H](C#N)CC2)CN3)c1F [Compound 241a, 6-Amino-3-((1r,4r)-4′-chloro-4-cyano-1′,2′-dihydrospiro[cyclohexane-1,3′-pyrrolo[2,3-b]pyridin]-5′-yl)-2-fluoro-N,N-dimethylbenzamide]
12.5 nM	CN(C)C(=O)c1c(N)ccc(-c2cnc3c(c2Cl)[C@]2(CC[C@H](C#N)CC2)CN3)c1F [Compound 241b, 6-Amino-3-((1s,4s)-4′-chloro-4-cyano-1′,2′-dihydrospiro[cyclohexane-1,3′-pyrrolo[2,3-b]pyridin]-5′-yl)-2-fluoro-N,N-dimethylbenzamide]
42 nM	Cn1cc(C2CCCCN2C(=O)c2cccc(-c3cnc4c(c3)[C@]3(CC[C@H](O)CC3)CN4)c2F)cn1 (stereo partly drawn) [Compound 245a, (2-Fluoro-3-((1s,4s)-4-hydroxy-1′,2′-dihydrospiro[cyclohexane-1,3′-pyrrolo[2,3-b]pyridin]-5′-yl)phenyl)((R)-2-(1-methyl-1H-pyrazol-4-yl)piperidin-1-yl)methanone]
6.01 nM	CN(C)C(=O)c1c(N)ccc(-c2cnc3c(c2Cl)[C@]2(CC[C@H](CO)CC2)CN3)c1F [Compound 248a, 6-Amino-3-((1s,4s)-4′-chloro-4-(hydroxymethyl)-1′,2′-dihydrospiro[cyclohexane-1,3′-pyrrolo[2,3-b]pyridin]-5′-yl)-2-fluoro-N,N-dimethylbenzamide]
4.89 nM	CN(C)C(=O)c1c(N)ccc(-c2cnc3c(c2Cl)[C@]2(CC[C@@H](CO)CC2)CN3)c1F [Compound 248b, 6-Amino-3-((1r,4r)-4′-chloro-4-(hydroxymethyl)-1′,2′-dihydrospiro[cyclohexane-1,3′-pyrrolo[2,3-b]pyridin]-5′-yl)-2-fluoro-N,N-dimethylbenzamide]
41.3 nM	CN(C)C(=O)c1c(N)ccc(-c2cnc3c(c2Cl)[C@]2(CC[C@@](C)(C#N)CC2)CN3)c1F [Compound 250b, 6-Amino-3-((1r,4r)-4′-chloro-4-cyano-4-methyl-1′,2′-dihydrospiro[cyclohexane-1,3′-pyrrolo[2,3-b]pyridin]-5′-yl)-2-fluoro-N,N-dimethylbenzamide]
19.9 nM	CN(C)C(=O)c1c(N)ccc(-c2cnc3c(c2Cl)[C@]2(CC[C@H](C(C)(C)O)CC2)CN3)c1F [Compound 255a, 6-Amino-3-((1s,4s)-4′-chloro-4-(2-hydroxypropan-2-yl)-1′,2′-dihydrospiro[cyclohexane-1,3′-pyrrolo[2,3-b]pyridin]-5′-yl)-2-fluoro-N,N-dimethylbenzamide]
12 nM	CN(C)C(=O)c1c(N)ccc(-c2cnc3c(c2Cl)[C@]2(CC[C@@H](C(C)(C)O)CC2)CN3)c1F [Compound 255b, 6-Amino-3-((1r,4r)-4′-chloro-4-(2-hydroxypropan-2-yl)-1′,2′-dihydrospiro[cyclohexane-1,3′-pyrrolo[2,3-b]pyridin]-5′-yl)-2-fluoro-N,N-dimethylbenzamide]
11.1 nM	CN(C)C(=O)c1c(N)ccc(-c2cnc3c(c2Cl)[C@]2(CC[C@@](C)(CO)CC2)CN3)c1F [Compound 256a, 6-Amino-3-((1r,4r)-4′-chloro-4-(hydroxymethyl)-4-methyl-1′,2′-dihydrospiro[cyclohexane-1,3′-pyrrolo[2,3-b]pyridin]-5′-yl)-2-fluoro-N,N-dimethylbenzamide]
190 nM	CN(C)C(=O)c1c(N)ccc(-c2cnc3c(c2Cl)[C@]2(CC[C@@H](CN)CC2)CN3)c1F [Compound 258a, 6-Amino-3-((1r,4r)-4-(aminomethyl)-4′-chloro-1′,2′-dihydrospiro[cyclohexane-1,3′-pyrrolo[2,3-b]pyridin]-5′-yl)-2-fluoro-N,N-dimethylbenzamide]
